Test results from patent US20260285853A1, “COMPOUNDS AND METHODS FOR MODULATING SPLICING” (REMIX THERAPEUTICS INC., priority 2023, published 2026).
Read-outs that look alike come from different tables or passages of the source.

What was measured:
Format in all cases: cell-based
HTT mRNA [1] = assay: Splicing RT-qPCR assay (THP), Table 2A
MYB mRNA [2] = assay: Splicing RT-qPCR assay (THP), Table 2A
HTT mRNA [3] = assay: Gene panel canonical junction qPCR assay, decrease in CJ mRNA, Table 3
Outline: (§1)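 A673 (DMEM, 10% FBS, 15,000 cells/well) or K562 (IMDM, 10% FBS) cells treated 24 h at 37 °C with 11-point 3-fold dilutions, top 10 uM, DMSO ≤0.25%. Canonical exon-exon junction mRNA measured by RT-qPCR, normalized to GAPDH, GUSB or PPIA and DMSO (ΔΔCt); IC50 from 4-parameter logistic fit.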

MYB mRNA [4] = assay: as above
Outline: as §1

[5] = tested on: SH-SY5Y (human neuroblastoma) cells; assay: Cell viability, Cell Titer Glo 2.0 assay; conditions: read-out: Viability SHSY5Y.3 GI50
Outline: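 Toxicity screen in SH-SY5Y cells. Compounds were serially diluted in DMSO and then in medium, giving 0.1% DMSO final. Viability was read with CellTiter-Glo 2.0 after 72 h at 37 °C, 5% CO2, against medium-only blank wells.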

[6] = Table 2A, THP, HTT alternative junction (AJ) mRNA, read-out: HTT AJ (AC50, increase in alternative junction mRNA)
[7] = Table 2A, THP, HTT canonical junction (CJ) mRNA, read-out: HTT CJ (IC50, decrease in canonical junction mRNA)
[8] = Table 2A, THP, MYB alternative junction (AJ) mRNA, read-out: MYB AJ (AC50, increase in alternative junction mRNA)
[9] = Table 2A, THP, MYB canonical junction (CJ) mRNA, read-out: MYB CJ (IC50, decrease in canonical junction mRNA)
[10] = decrease in CJ mRNA levels, canonical junction qPCR, gene panel
[11] = Table 2A (THP), AJ mRNA increase, read-out: HTT AJ (increase in alternative junction mRNA, AC50)
[12] = Table 2A (THP), CJ mRNA decrease, read-out: HTT CJ (decrease in canonical junction mRNA, IC50)
[13] = Table 2A (THP), AJ mRNA increase, read-out: MYB AJ (increase in alternative junction mRNA, AC50)
[14] = Table 2A (THP), CJ mRNA decrease, read-out: MYB CJ (decrease in canonical junction mRNA, IC50)
[15] = decrease in canonical junction (CJ) mRNA, gene panel qPCR, Table 3

IC50 (HTT mRNA [1]; [7]) [nM] | IC50 (MYB mRNA [2]; [9]) [nM] | IC50 (HTT mRNA [3]; [10]) [nM] | IC50 (MYB mRNA [4]; [10]) [nM] | GI50 [5] [nM] | IC50 (HTT mRNA [1]; [12]) [nM] | IC50 (MYB mRNA [2]; [14]) [nM] | IC50 (HTT mRNA [3]; [15]) [nM] | IC50 (MYB mRNA [4]; [15]) [nM] | SMILES | AC50 (HTT mRNA [1]; [6]) [nM] | AC50 (MYB mRNA [2]; [8]) [nM] | AC50 (HTT mRNA [1]; [11]) [nM] | AC50 (MYB mRNA [2]; [13]) [nM]
– | – | – | – | 1000 to 10000 | 1000 to 10000 | 1000 to 10000 | 1000 to 10000 | 1000 to 10000 | CNC1CCCC(Oc2ccc(C(=O)Nc3cc4cn(C)nc4cc3OC)c3nn(C)cc23)C1 (centres unmarked) [Compound 596] | – | – | 1000 to 10000 | 1000 to 10000
– | – | – | – | 1000 to 10000 | > 10000 | 100 to 1000 | > 10000 | 100 to 1000 | CCNC1CCN(c2cc(F)c(C(=O)Nc3cn4cc(C)nc(C#N)c4n3)c3nn(C)cc23)CC1 [Compound 390, N-(8-cyano-6-methyl-imidazo[1,2-a]pyrazin-2-yl)-4-[4-(ethylamino)-1-piperidyl]-6-fluoro-2-methyl-indazole-7-carboxamide] | – | – | > 10000 | < 100
> 10000 | > 10000 | > 10000 | > 10000 | 1000 to 10000 | – | – | – | – | COC(=O)NCc1nc(C)cn2cc(NC(=O)c3ccc(N4CCC(NC5CC5)CC4)c4cn(C)nc34)nc12 [Compound 807] | > 10000 | > 10000 | – | –
1000 to 10000 | 1000 to 10000 | 1000 to 10000 | 1000 to 10000 | 1000 to 10000 | – | – | – | – | COc1c(NC(=O)c2ccc(N3CCC(NC4CC4)CC3)n3cc(C)nc23)cn2cc(C)nc(C)c12 [Compound 631, 5-[4-(cyclopropylamino)-1-piperidyl]-N-(8-methoxy-1,3-dimethyl-pyrrolo[1,2-a]pyrazin-7-yl)-2-methyl-imidazo[1,2-a]pyridine-8-carboxamide] | 1000 to 10000 | 1000 to 10000 | – | –
– | – | – | – | 1000 to 10000 | > 10000 | < 100 | > 10000 | < 100 | CCNC1CCN(c2cc(F)c(C(=O)Nc3cn4cc(CF)nc(C)c4n3)c3nn(C)cc23)CC1 [Compound 383, 4-(4-(ethylamino)piperidin-1-yl)-6-fluoro-N-(6-(fluoromethyl)-8-methylimidazo[1,2-a]-pyrazin-2-yl)-2-methyl-2H-indazole-7-carboxamide 2,2,2-trifluoroacetate] | – | – | 100 to 1000 | < 100
– | – | – | – | 1000 to 10000 | 100 to 1000 | < 100 | 100 to 1000 | < 100 | CCNC1CCN(c2cc(F)c(C(=O)Nc3cc4cn(C)nc4cc3OC)c3nn(C)cc23)CC1 [Compound 387, 4-[4-(ethyl-amino)-1-piperidyl]-6-fluoro-N-(6-methoxy-2-methyl-indazol-5-yl)-2-methyl-indazole-7-carboxamide] | – | – | 100 to 1000 | < 100
– | – | – | – | > 10000 | > 10000 | > 10000 | > 10000 | > 10000 | Cc1cn2cc(NC(=O)c3ccc(N4CC(C5CNC5)C4)c4cn(C)nc34)nc2c(C)n1 [Compound 498] | – | – | > 10000 | > 10000

More lines, now with the values behind:

SMILES | IC50 (HTT mRNA [1]; [7]) [nM] | IC50 (MYB mRNA [2]; [9]) [nM] | IC50 (HTT mRNA [3]; [10]) [nM] | IC50 (MYB mRNA [4]; [10]) [nM] | GI50 [5] [nM] | IC50 (HTT mRNA [1]; [12]) [nM] | IC50 (MYB mRNA [2]; [14]) [nM] | IC50 (HTT mRNA [3]; [15]) [nM] | IC50 (MYB mRNA [4]; [15]) [nM] | AC50 (HTT mRNA [1]; [6]) [nM] | AC50 (MYB mRNA [2]; [8]) [nM] | AC50 (HTT mRNA [1]; [11]) [nM] | AC50 (MYB mRNA [2]; [13]) [nM]
CN[C@H]1CCN(c2ccc(C(=O)Nc3cc(F)c4nn(C)cc4c3)c3nc(OC)sc23)C1 [Compound 748, N-(7-fluoro-2-methyl-indazol-5-yl)-2-methoxy-7-[(3S)-3-(methylamino)pyrrolidin-1-yl]-1,3-benzothiazole-4-carboxamide] | 1000 to 10000 | < 100 | 1000 to 10000 | < 100 | 100 to 1000 | – | – | – | – | 100 to 1000 | < 100 | – | –
COc1cc2nn(C)cc2cc1NC(=O)c1ccc(N2CCC3(CCCN3)C2)c2cn(C)nc12 (centres unmarked) [Compound 512] | – | – | – | – | 1000 to 10000 | > 10000 | 1000 to 10000 | > 10000 | 1000 to 10000 | – | – | > 10000 | 100 to 1000
Cn1cc2cc(NC(=O)c3ccc(N4CCC(NC5CC5)CC4)c4cn(C)nc34)cc(CCO)c2n1 [Compound 879] | > 10000 | 1000 to 10000 | > 10000 | 1000 to 10000 | 1000 to 10000 | – | – | – | – | > 10000 | 1000 to 10000 | – | –
Cc1cn2cc(NC(=O)c3c(F)cc(N4CCC(NC5CC5)CC4)c4cn(C)nc34)nc2cn1 [Compound 404, 4-(4-(cyclopropylamino)-piperidin-1-yl)-6-fluoro-2-methyl-N-(6-methylimid-azo-[1,2-a]pyrazin-2-yl)-2H-indazole-7-carbox-amide 2,2,2-trifluoro-acetate] | – | – | – | – | 100 to 1000 | > 10000 | < 100 | > 10000 | < 100 | – | – | 1000 to 10000 | < 100
CNC1CCC(Oc2ccc(C(=O)Nc3cn4cc(C)nc(C)c4n3)c3nn(C)cc23)CC1 (centres unmarked) [Compound 592] | – | – | – | – | 1000 to 10000 | 1000 to 10000 | 1000 to 10000 | 1000 to 10000 | 1000 to 10000 | – | – | 1000 to 10000 | 1000 to 10000
Cn1cc2cc(NC(=O)c3ccc(N4CCCCC4)c4cn(C)nc34)cc(CNS(C)(=O)=O)c2n1 [Compound 844] | > 10000 | > 10000 | > 10000 | > 10000 | 1000 to 10000 | – | – | – | – | > 10000 | > 10000 | – | –
CNC1CCN(c2ccc(C(=O)Nc3cn4cc(C)nc(CNS(C)(=O)=O)c4n3)c3nn(C)cc23)C1 (centres unmarked) [Compound 848, N-[8-(methanesulfonamidomethyl)-6-methyl-imidazo[1,2-a]pyrazin-2-yl]-2-methyl-4-[3-(methylamino)pyrrolidin-1-yl]indazole-7-carboxamide] | 100 to 1000 | 100 to 1000 | 100 to 1000 | 100 to 1000 | 100 to 1000 | – | – | – | – | 100 to 1000 | 100 to 1000 | – | –
COc1c(NC(=O)c2c(F)cc(N3CCC(NC45CC(C4)C5)CC3)c3cn(C)nc23)cn2cc(C)nc2c1F [Compound 389, 4-[4-(1-bicyclo[1.1.1]pentanylamino)-1-piperidyl]-6-fluoro-N-(8-fluoro-7-methoxy-2-methylimidazo-[1,2-a]pyridin-6-yl)-2-methyl-indazole-7-carboxamide] | – | – | – | – | < 100 | 100 to 1000 | < 100 | 100 to 1000 | < 100 | – | – | 100 to 1000 | < 100
COc1cc2nn(C)cc2cc1NC(=O)c1c(Cl)cc(N2CCC(NC3CC3)CC2)n2cc(C)nc12 [Compound 627, 7-chloro-5-(4-(cyclopropylamino)piperidin-1-yl)-N-(6-methoxy-2-methyl-2H-indazol-5-yl)-2-methylimidazo[1,2-a]pyridine-8-carboxamide 2,2,2-trifluoroacetate] | > 10000 | > 10000 | > 10000 | > 10000 | > 10000 | – | – | – | – | > 10000 | > 10000 | – | –
CNC1CCN(c2cc(F)c(C(=O)Nc3cn4cc(C)nc(C)c4n3)c3nn(C)cc23)CC1 [Compound 342, N-(6,8-dimethylimidazo[1,2-a]pyrazin-2-yl)-6-fluoro-2-methyl-4-[4-(methylamino)-1-piperidyl]-indazole-7-carbox-amide] | – | – | – | – | 1000 to 10000 | 1000 to 10000 | < 100 | 1000 to 10000 | < 100 | – | – | 1000 to 10000 | < 100
C#CCCC1(CCN2CCN(c3ccc(C(=O)Nc4cc(F)c5nc(C)cn5c4)c4nn(C)cc34)CC2)N=N1 [Compound 376, 4-(4-(2-(3-(but-3-yn-1-yl)-3H-diazirin-3-yl)ethyl)piperazin-1-yl)-N-(8-fluoro-2-methyl-imidazo-[1,2-a]pyridin-6-yl)-2-methyl-2H-indazole-7-carboxamide bis(2,2,2-trifluoroacetate)] | – | – | – | – | 1000 to 10000 | 1000 to 10000 | 100 to 1000 | 1000 to 10000 | 100 to 1000 | – | – | > 10000 | 100 to 1000
CCNC1CCN(c2cc(F)c(C(=O)Nc3cn4cc(C)nc4cc3OC)c3nn(C)cc23)CC1 [Compound 331, 4-[4-(ethylamino)-1-piperidyl]-6-fluoro-N-(7-methoxy-2-methyl-imidazo [1,2-a]pyridin-6-yl)-2-methyl-indazole-7-carboxamide] | – | – | – | – | 1000 to 10000 | 100 to 1000 | < 100 | 100 to 1000 | < 100 | – | – | 100 to 1000 | < 100
CCNC1CCN(c2ccc(C(=O)Nc3cc(C(=O)NC)c4nc(C)cn4c3)c3nn(C)cc23)CC1 [Compound 319, 4-(4-(ethylamino)-piperidin-1-yl)-2-methyl-N-(2-methyl-8-(methylcarbamoyl)-imidazo[1,2-a]-pyridin-6-yl)-2H-indazole-7-carboxamide 2,2,2-trifluoroacetate] | – | – | – | – | > 10000 | > 10000 | > 10000 | > 10000 | > 10000 | – | – | > 10000 | > 10000
